The test system of the test is Mycobacterium tuberculosis H37Rv (ATCC: 25177). The test can be described thus: Resazurin Microplate Assay (REMA), anti-tubercular activity, H37Rv strain. In kind it is cell-based. The following applies: 192 h, read-out: Anti-tubercular activity against Mycobacterium tuberculosis (MIC), H37Rv.

SMILES strings stand for the structures.

Regarding `Cc1cc[n+](CC(=O)c2ccc(F)cc2)cc1.[Br-]` [Compound 3d, 1-(2-(4-Fluorophenyl)-2-oxoethyl)-4-methylpyridin-1-ium bromide], the MIC was determined as 8 mg/L.

The values are drawn from US12227480B1 (priority 2023, dated 2025).
